The target of test [1] is Trace amine-associated receptor 1 (Mus musculus, UniProt Q923Y8). Put plainly: Agonist activity at mouse TAAR1 expressed in HEK293 cells assessed as cAMP accumulation after 20 mins by BRET assay. It is filed as functional, cell-based. For orientation: Changes in cAMP serve as a functional read-out for many G protein-coupled receptors.
In test [2] the target is Trace amine-associated receptor 1 (Mus musculus) (UniProt Q923Y8). Nature of the test: Agonist activity at mouse TAAR1 expressed in HEK293 cells assessed as cAMP accumulation at 10 uM after 20 mins by BRET assay relative to beta-PEA. It is filed as functional, cell-based.
Chain of Trace amine-associated receptor 1 (Mus musculus) (Q923Y8 whole entry): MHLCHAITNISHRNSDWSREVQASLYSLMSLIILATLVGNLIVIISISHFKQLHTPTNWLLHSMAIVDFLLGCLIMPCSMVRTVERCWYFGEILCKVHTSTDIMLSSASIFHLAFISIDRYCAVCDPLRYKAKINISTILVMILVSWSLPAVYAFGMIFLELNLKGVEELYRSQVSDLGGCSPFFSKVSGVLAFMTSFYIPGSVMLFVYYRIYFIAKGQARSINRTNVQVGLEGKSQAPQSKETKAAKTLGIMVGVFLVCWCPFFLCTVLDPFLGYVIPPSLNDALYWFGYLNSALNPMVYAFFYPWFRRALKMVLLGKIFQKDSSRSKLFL
In test [3] the target is T1, Trace amine-associated receptor 5 (Mus musculus, UniProt Q5QD14).
T1 sequence (Q5QD14 whole entry): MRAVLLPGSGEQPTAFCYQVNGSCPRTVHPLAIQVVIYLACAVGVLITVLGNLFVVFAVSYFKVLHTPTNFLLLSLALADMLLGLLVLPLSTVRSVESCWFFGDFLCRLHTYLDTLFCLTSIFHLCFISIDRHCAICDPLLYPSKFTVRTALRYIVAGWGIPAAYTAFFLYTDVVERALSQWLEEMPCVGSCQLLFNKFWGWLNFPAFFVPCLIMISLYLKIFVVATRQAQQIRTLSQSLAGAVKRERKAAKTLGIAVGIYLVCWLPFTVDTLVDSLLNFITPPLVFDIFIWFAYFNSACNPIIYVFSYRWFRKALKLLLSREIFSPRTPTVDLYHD
Nature of the test: Agonist activity at mouse TAAR5 expressed in HEK293 cells assessed as cAMP accumulation after 20 mins by BRET assay. It is filed as functional, cell-based.

In test [4] the target is T2, Trace amine-associated receptor 1 (Homo sapiens) (UniProt Q96RJ0).
T2 sequence (whole entry): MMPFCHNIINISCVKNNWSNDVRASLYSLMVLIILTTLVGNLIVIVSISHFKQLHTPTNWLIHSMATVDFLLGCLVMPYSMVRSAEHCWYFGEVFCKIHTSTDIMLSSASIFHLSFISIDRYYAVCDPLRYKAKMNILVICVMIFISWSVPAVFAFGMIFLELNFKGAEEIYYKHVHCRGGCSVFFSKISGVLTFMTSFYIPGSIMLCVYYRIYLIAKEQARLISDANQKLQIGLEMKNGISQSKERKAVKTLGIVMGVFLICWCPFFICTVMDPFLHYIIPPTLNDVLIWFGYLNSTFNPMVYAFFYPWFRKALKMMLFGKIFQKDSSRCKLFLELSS
Nature of the test: Agonist activity at human TAAR1 expressed in HEK293 cells assessed as cAMP accumulation at 10 uM after 20 mins by BRET assay relative to beta-PEA. The class given is functional, cell-based.

Test [5] has as its target T3, Trace amine-associated receptor 1 (Homo sapiens, UniProt Q96RJ0).
T3 sequence (Q96RJ0 whole entry): T2 sequence (whole entry)
Put plainly: Agonist activity at human TAAR1 expressed in HEK293 cells assessed as cAMP accumulation after 20 mins by BRET assay. It is filed as functional, cell-based.

Test [6] is described as follows: Selectivity ratio of EC50 for mouse TAAR1 to EC50 for human TAAR1.

A value given as a limit tells only on which side of the number the result lay.

The term EC50 denotes the concentration giving half of the maximal effect.

Chain of Trace amine-associated receptor 1 (Mus musculus, UniProt Q923Y8) (Q923Y8 whole entry): as the sequence (Q923Y8 whole entry) above

As to `N=C(N)/N=C(\N)N1CCN(c2ccccc2Cl)CC1`, the results for the concentration for a half-maximal effect (EC50) in test [1] and in test [3] were 2.66 µM and more than 10 µM, respectively. In addition, the Activity in test [2] was 57%.

As for `NCCc1ccccc1` [PHENETHYLAMINE], the 50% effective concentration (EC50) in test [1] is 0.12 µM.

With `COc1ccc(N2CCN(/C(N)=N/C(=N)N)CC2)cc1`, in test [4], the Activity came out at 110%. For the same molecule, the EC50 in test [5] was 11.4 µM; in test [3], more than 10 µM.

For `N=C(N)/N=C(\N)N1CCN(c2cccc(C(F)(F)F)c2)CC1`, the EC50 in test [3] was more than 10 µM.

`N=C(N)/N=C(\N)N1CCN(c2ccc(Cl)cc2)CC1`: the EC50 in test [3] is more than 10 µM.

Take `N=C(N)/N=C(\N)N1CCN(c2ccccn2)CC1`: in test [3], the EC50 is more than 10 µM.

As for `N=C(N)NC(=N)N1CCN(c2ccccc2)CC1`, the EC50 in test [1] was 2.38 µM; in test [5], 1.38 µM; in test [3], more than 10 µM. For the same molecule, the Activity in test [2] is 46%; in test [4], 81%. In addition, the Ratio EC50 in test [6] was 1.7.

Turning to `N=C(N)/N=C(\N)N1CCN(c2cccc(Cl)c2)CC1`, the EC50 in test [3] is more than 10 µM.

Turning to `N=C(N)/N=C(\N)N1CCN(c2ncccn2)CC1`, the figures for the EC50 in test [1] and in test [3] were 9 µM and more than 10 µM, respectively. Also, in test [2], the Activity turned out to be 40%.

In the case of `COc1ccccc1N1CCN(/C(N)=N/C(=N)N)CC1`, the EC50 in test [3] was more than 10 µM.

For `COc1cccc(N2CCN(/C(N)=N/C(=N)N)CC2)c1`, in test [3], the EC50 was more than 10 µM.

The values above are taken from ChEMBL document CHEMBL4145505, “Rational design, chemical synthesis and biological evaluation of novel biguanides exploring species-specificity responsiveness of TAAR1 agonists” (Eur J Med Chem, 2018).
